Test results as given in ChEMBL document CHEMBL4196045, “Identification of cisapride as new inhibitor of putrescine uptake in Trypanosoma cruzi by combined ligand- and structure-based virtual screening” (Eur J Med Chem, 2018).
Active and inactive are the calls of the source. The rule behind the calls is not given here.

Columns and labels:
Trypanosoma cruzi [1] = assay: Antitrypanosomal activity against Trypanosoma cruzi Y epimastigotes at 200 uM after 7 days by hemocytometry; format: functional, organism-based
[2] = molecular target: T1, Putative amino acid transporter PAT12 (Trypanosoma cruzi) (UniProt Q6QT93); assay: Inhibition of Trypanosoma cruzi Y epimastigotes PAT12 assessed as reduction in initial velocity of [14C]-putrescine uptake at 50 uM in presence of non-radioactive putrescine by liquid scintillation counting method
T1 sequence (whole entry): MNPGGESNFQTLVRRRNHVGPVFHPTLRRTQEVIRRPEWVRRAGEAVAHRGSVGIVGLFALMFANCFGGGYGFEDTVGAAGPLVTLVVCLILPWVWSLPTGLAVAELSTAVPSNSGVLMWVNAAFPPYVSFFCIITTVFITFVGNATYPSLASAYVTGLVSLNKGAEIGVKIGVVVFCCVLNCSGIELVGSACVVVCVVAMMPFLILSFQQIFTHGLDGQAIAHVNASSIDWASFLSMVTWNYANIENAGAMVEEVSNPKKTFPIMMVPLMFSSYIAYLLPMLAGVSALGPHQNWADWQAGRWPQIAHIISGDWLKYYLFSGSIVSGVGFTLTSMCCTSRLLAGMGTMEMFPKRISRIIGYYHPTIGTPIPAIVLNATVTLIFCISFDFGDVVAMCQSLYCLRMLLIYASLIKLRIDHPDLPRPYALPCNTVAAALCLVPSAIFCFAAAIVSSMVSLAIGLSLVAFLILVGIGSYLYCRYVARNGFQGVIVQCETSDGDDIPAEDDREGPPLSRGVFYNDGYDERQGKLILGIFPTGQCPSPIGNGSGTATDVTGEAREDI

Trypanosoma cruzi [3] = assay: Antitrypanosomal activity against Trypanosoma cruzi Y epimastigotes at 100 uM after 7 days by hemocytometry; format: functional, organism-based
Trypanosoma cruzi [4] = assay: Antitrypanosomal activity against Trypanosoma cruzi Y epimastigotes after 7 days by hemocytometry; format: functional, organism-based; settings: 168 h
Trypanosoma cruzi [5] = assay: Inhibition of Trypanosoma cruzi Y epimastigotes AAAP411 assessed as reduction in [1,4-14C]-arginine uptake in presence of non-radioactive arginine by liquid scintillation counting method

Structure (SMILES)	Activity (Trypanosoma cruzi [1])	inhibition [2]	Activity (Trypanosoma cruzi [3])	IC50 (Trypanosoma cruzi [4])	inhibition (Trypanosoma cruzi [5])
CN(CCCOc1ccc2c(c1)OCO2)C1CCC(CO)CC1 (stereo not drawn)	inactive	inactive			
NCc1ccccc1OC1CCCC1		inactive	Active	41.1 µM	inactive
Cc1cccc(C)c1OCC(C)N (racemic)	inactive	inactive			
